Reference: US10870625B2, “Zwitterionic propargyl-linked antifolates useful for treating bacterial infections” (THE UNIVERSITY OF CONNECTICUT, priority 2016, dated 2020)
≈ marks a conversion by molar mass, not a printed value. Like-named read-outs stand apart in the source and are kept apart here.

Columns and labels:
MtbDHFR [1] = target: T1, MtbDHFR (Mycobacterium tuberculosis (strain ATCC 25618 / H37Rv), UniProt P9WNX1); assay: M. tuberculosis DHFR enzyme inhibition; type: biochemical
Mtb = assay: M. tuberculosis MIC, microtiter broth dilution (Table 6); type: cell-based, Mycobacterium tuberculosis; conditions: for MIC: Mycobacterium tuberculosis
Protocol: (§1) (provided by Leonid Heifets).
(§2) Each isolate was tested in duplicate.

Mtb 276 = type: cell-based, Mycobacterium tuberculosis; conditions: MDR strain
Mtb 365 = type: cell-based, Mycobacterium tuberculosis; conditions: MDR strain
Mtb 56 = type: cell-based, Mycobacterium tuberculosis; conditions: MDR strain
Mtb Erdman = Mtb Erdman MIC, microtiter broth dilution; type: cell-based, Mycobacterium tuberculosis
Protocol: as §1, §2

Mtb 352 = type: cell-based, Mycobacterium tuberculosis; conditions: MDR strain
Mtb 5 = type: cell-based, Mycobacterium tuberculosis; conditions: XDR strain
Mtb C-31 = type: cell-based, Mycobacterium tuberculosis; conditions: MDR strain
[2] = system: methicillin-resistant S. aureus (MRSA); conditions: background; cited from earlier work
[3] = system: wild-type Gram-negative E. coli; conditions: background; cited from earlier work
[4] = system: E. coli, efflux pumps genetically deleted; conditions: background; cited from earlier work
Sa(H30N) strain [5] = assay: microbe, parasite or virus in culture; conditions: Staphylococcus aureus, read-out: MIC Sa(H30N)
[6] = system: S. aureus ATCC strain 43300; assay: microbe, parasite or virus in culture; type: cell-based, Staphylococcus aureus; conditions: for MIC: Staphylococcus aureus, ATCC43300, read-out: MIC Sa43300; for MIC Sa43300: Table 12, wild-type strain
Sa43300 [7] = type: cell-based, Staphylococcus aureus; conditions: progenitor Sa43300, 6× MIC
Sa43300 [8] = conditions: previously reported studies, S. aureus 43300; cited from earlier work
MtbDHFR [9] = target: T1, MtbDHFR; conditions: data from Nixon et al., Chem. Biol. (2014); cited from earlier work
E. coli NR698 = type: cell-based, Escherichia coli; conditions: Table 2
CYP3A4 = CYP3A4 (Homo sapiens (Human), UniProt P08684); assay: Cytochrome P450 inhibition, CYP3A4
CYP2D6 = CYP2D6 (Homo sapiens (Human), UniProt P10635); assay: Cytochrome P450 inhibition, CYP2D6
E. coli (ATCC 25922) = assay: E. coli MIC, microdilution broth assay; type: cell-based, Escherichia coli; conditions: Table 2; wild-type E. coli
Protocol: Minimum inhibitory concentrations were determined using E. coli (ATCC 25922) and the microdilution broth assay with an inoculum of […] CFU/mL in Isosensitest Broth (Oxoid).

Sa(H30N) strain [10] = system: Sa(H30N) strain
S. aureus (Sa) DHFR = S. aureus (Sa) DHFR (Staphylococcus aureus, UniProt P0A017); type: biochemical; conditions: Table 2
E. coli (Ec) DHFR = E. coli (Ec) DHFR (Escherichia coli (strain K12), UniProt P0ABQ4); assay: E. coli DHFR enzyme inhibition (NADPH oxidation, 340 nm); type: biochemical; conditions: Table 2
[11] = Microsomal stability assay (UPLC of parent compound)
human (Hu) DHFR = human (Hu) DHFR (Homo sapiens (Human), UniProt P00374); assay: Human DHFR enzyme inhibition (Example 5); type: biochemical; conditions: Table 2

CCc1nc(N)nc(N)c1C#C[C@H](C)c1cc2c(c(-c3ccncc3)c1)OCO2 [Compound 55]
IC50 (MtbDHFR [1]): 206 nM
MIC Mtb (Mtb): 4 µg/mL (≈ 10.3 µM)
MIC Mtb 276 (Mtb 276): 8 µg/mL (≈ 20.6 µM)
MIC Mtb 365 (Mtb 365): 4 µg/mL (≈ 10.3 µM)
MIC Mtb56 (Mtb 56): 8 µg/mL (≈ 20.6 µM)
MIC Mtb Erdman (Mtb Erdman): 8 µg/mL (≈ 20.6 µM)
MIC Mtb 352 (Mtb 352): 8 µg/mL (≈ 20.6 µM)
MIC Mtb 5 (Mtb 5): 8 µg/mL (≈ 20.6 µM)
MIC Mtb C-31 (Mtb C-31): 16 µg/mL (≈ 41.3 µM)

CN(Cc1cnc2nc(N)nc(N)c2n1)c1ccc(C(=O)N[C@@H](CCC(=O)O)C(=O)O)cc1 [methotrexate]
MIC50 MRSA [2]: 20 µg/mL (≈ 44 µM)
MIC90 MRSA [2]: 100 µg/mL (≈ 220 µM)
MIC wild-type E. coli [3]: over 1 mM
MIC E. coli, efflux pumps genetically deleted [4]: 64 to 256 µM

CCc1nc(N)nc(N)c1C#CC(C)c1cc(OC)cc(-c2ccncc2)c1 (stereo not shown) [Compound A]
MIC (Sa(H30N) strain [5]): 2.5 µg/mL (≈ 6.69 µM)
MIC [6]: 0.0781 µg/mL (≈ 0.209 µM)
Mutational Frequency of DHFR mutation F98Y (Sa43300 [7]): 3.11 × 10^−11
Mutational Frequency of DHFR mutation H30N (Sa43300 [7]): 4.67 × 10^−11
Mutational Frequency of DHFR mutation H149R (Sa43300 [7]): 1.65 × 10^−10
mutation frequencies of mutants F98Y and F98I (Sa43300 [8]): 10^−10

COc1cc(NCc2ccc3nc(N)nc(N)c3c2C)cc(OC)c1OC [Trimetrexate, trimetrexate, reference compound]
MIC (Mtb): 4 µg/mL (≈ 10.8 µM)
IC50 (MtbDHFR [9]): 17 nM

CCc1nc(N)nc(N)c1C#CCc1cc(-c2ccc(C(=O)O)cc2)ccc1OC [Compound 15]
IC50 (MtbDHFR [1]): 173 nM
MIC E. coli NR698 (E. coli NR698): 0.0098 µg/mL (≈ 0.0244 µM)
concentration required for inhibition of CYP3A4 (CYP3A4): greater than 50 μM
MIC Mtb (Mtb): 4 µg/mL (≈ 9.94 µM)
MIC Mtb 276 (Mtb 276): 16 µg/mL (≈ 39.8 µM)
MIC Mtb 365 (Mtb 365): 4 µg/mL (≈ 9.94 µM)
MIC Mtb56 (Mtb 56): 16 µg/mL (≈ 39.8 µM)
MIC Mtb Erdman (Mtb Erdman): 16 µg/mL (≈ 39.8 µM)
concentration required for inhibition of CYP2D6 (CYP2D6): greater than 50 μM
MIC Mtb 352 (Mtb 352): 16 µg/mL (≈ 39.8 µM)
MIC E. coli 25922 (E. coli (ATCC 25922)): >20 µg/mL
MIC Sa(H30N) (Sa(H30N) strain [10]): 0.1563 µg/mL (≈ 0.388 µM)
IC50 (S. aureus (Sa) DHFR): 32 nM
IC50 (E. coli (Ec) DHFR): 90 nM
MIC S. aureus 43300 [6]: 0.0195 µg/mL (≈ 0.0485 µM)
MIC Sa43300 [6]: 0.0195 µg/mL (≈ 0.0485 µM)
MIC Mtb 5 (Mtb 5): 8 µg/mL (≈ 19.9 µM)
phase I half-life ([11]; phase I): 1.65 h
phase II half-life ([11]; phase II): approximately 87 min
MIC Mtb C-31 (Mtb C-31): >32 µg/mL

COc1cc(Cc2cnc(N)nc2N)cc(OC)c1OC [TMP, trimethoprim]
MIC (Mtb): 256 µg/mL (≈ 882 µM)
MIC (Sa(H30N) strain [5]): 2.5 µg/mL (≈ 8.61 µM)
MIC [6]: 0.312 µg/mL (≈ 1.08 µM)
MIC MRSA [2]: 0.3125 µg/mL (≈ 1.08 µM)
MIC E. coli [3]: 0.3125 µg/mL (≈ 1.08 µM)

CCc1nc(N)nc(N)c1C#CC(SC)c1cc(-c2ccc(C(=O)O)cc2)ccc1OC (stereo not shown) [Compound 29]
MIC E. coli NR698 (E. coli NR698): 0.0391 µg/mL (≈ 0.0872 µM)
MIC Mtb (Mtb): 0.5 µg/mL (≈ 1.11 µM)
MIC E. coli 25922 (E. coli (ATCC 25922)): >20 µg/mL
MIC Sa(H30N) (Sa(H30N) strain [10]): 0.1563 µg/mL (≈ 0.348 µM)
IC50 (S. aureus (Sa) DHFR): 37 nM
IC50 (E. coli (Ec) DHFR): 177 nM
IC50 (human (Hu) DHFR): 266 nM
MIC S. aureus 43300 [6]: 0.625 µg/mL (≈ 1.39 µM)
MIC Sa43300 [6]: 0.0391 µg/mL (≈ 0.0872 µM)
